Assay results reported in US20090220438A1, “CHROMEN-4-ONE DERIVATIVES AS SELF-TANNING SUBSTANCE” (MERCK PATENT GMBH, priority 2006, published 2009).

Columns and labels:
[1] = tested on: primary normal human melanocytes (R6-NHEM-2); experiment: Melanogenesis assay (melanin content after 240 hours incubation, OD at 405 nm against melanin standard); assay type: cell-based; conditions: for Melanin: 240 hours incubation
Procedure: The action of the compounds of the formula I as tanning agents is tested through the ability to increase melanin synthesis. The reference used is kojic acid, which acts on melanin synthesis and prevents a possible brown coloration of the skin. It can be seen from Table 1 that the compounds Ia to 1 g according to the invention are distinguished by the fact that—after topical application—they induce the formation of skin-inherent pigments in the skin, increase melanin synthesis in the skin and in this way produce enhanced tanning of the skin. They have no adverse health effects, are non-irritant and easy to handle, and the resultant hue naturally corresponds to that of the natural healthy skin colour. The tanning obtained is light-fast and cannot be washed off since it corresponds to natural tanning. To this end, primary normal human melanocytes (R6-NHEM-2)* are cultivated in 24 microtitre plates (96-well, 120,000 cells per tube). Two additional plates are carried out, one for evaluation of the viability of the cells (standard MTT assay) and a second for protein investigation (using a […] standard protocol). After 50% confluence, the culture medium is replaced by fresh culture medium which comprises either the control solution (KA or IBMX) or the 7 solutions to be investigated. Each experiment is repeated 3 times. The cells are incubated at 37° C. (and 5% CO2) for 240 hours, during which the medium is changed every 3 days. After incubation, monolayers are rinsed, the cells are destroyed, and melanin is extracted by means of a 0.5 M NaOH solution. *NHEM-2=normal human epidermal melanocytes (cell type) The optical density (OD) of each experimentally determined value is measured at 405 nm against the melanin standard (standard curve 0.39 to 100 μg/ml of melanin, Sigma M8631). The measurement results are quoted in μg/ml of melanin and in percent of the negative untreated control.

[2] = Tanning activity of intermediates or precursors (statement, no method given)
[3] = Homo sapiens, Melanocyte, 240 h, 200 μM, percent of the negative untreated control
[4] = Homo sapiens, Melanocyte, 240 h, 8 μM, percent of the negative untreated control
[5] = Homo sapiens, Melanocyte, 240 h, 40 μM, percent of the negative untreated control
[6] = Homo sapiens, Melanocyte, 240 h, 1.6 μM, percent of the negative untreated control

| Structure (SMILES) | Melanin ([1]; 200 μM) | activity at 200 µM [1, 3] | Melanin ([1]; 8 μM) | Melanin ([1]; 40 μM) | activity at 8 µM [1, 4] | activity at 40 µM [1, 5] | Melanin ([1]; 1.6 μM) | activity at 1.6 µM [1, 6] | other results |
| --- | --- | --- | --- | --- | --- | --- | --- | --- | --- |
| CC(C)Cn1c(=O)n(C)c(=O)c2[nH]cnc21 [IBMX, 3-isobutyl-1-methylxanthine, reference compound] | 15.39 µg/mL | 166% |  |  |  |  |  |  |  |
| COCC(=O)c1c(COC)oc2cc(O)cc(O)c2c1=O [IIa, 5,7-dihydroxy-3-(2-methoxyacetyl)-2-methoxymethyl-1-benzopyran-4-one] |  |  |  |  |  |  |  |  | Tanning activity (in words) [2]: have a tanning activity |
| COCc1cc(=O)c2c(O)cc(O)cc2o1 [Ia, 5,7-dihydroxy-2-methoxymethylchromen-4-one] |  |  |  |  |  |  |  |  | Melanin ([1]; 50 μM): 17.87 µg/mL; Melanin ([1]; 150 μM): 22.14 µg/mL; Melanin ([1]; 450 μM): 19.98 µg/mL; activity at 50 µM ([1]; Homo sapiens, Melanocyte, 240 h, 50 μM, percent of the negative untreated control): 192%; activity at 150 µM ([1]; Homo sapiens, Melanocyte, 240 h, 150 μM, percent of the negative untreated control): 239%; activity at 450 µM ([1]; Homo sapiens, Melanocyte, 240 h, 450 μM, percent of the negative untreated control): 215% |
| COCc1oc2cc(O)cc(O)c2c(=O)c1OC [Ib, 5,7-dihydroxy-3-methoxy-2-methoxymethylchromen-4-one] | 25.2 µg/mL | 128% | 20.9 µg/mL | 23.7 µg/mL | 106% | 120% |  |  |  |
| O=c1c(O)c(CO)oc2cc(O)cc(O)c12 [Ic] | 27.6 µg/mL | 139% | 20.8 µg/mL | 23.8 µg/mL | 105% | 120% |  |  |  |
| COc1c(C)oc2cc(O)cc(O)c2c1=O [Id, 5,7-dihydroxy-3-methoxy-2-methylchromen-4-one] |  |  | 22.0 µg/mL | 27.0 µg/mL | 112% | 137% | 20.8 µg/mL | 106% |  |
| Cc1oc2cc(O)cc(O)c2c(=O)c1O [Ie, 2-methyl-3,5,7-trihydroxychromen-4-one] | 27.2 µg/mL | 138% | 20.6 µg/mL | 23.9 µg/mL | 104% | 121% |  |  |  |
| O=c1ccoc2cc(O)ccc12 [If, 7-hydroxychromen-4-one] |  |  | 20.3 µg/mL | 24.7 µg/mL | 102% | 124% | 19.9 µg/mL | 100% |  |
| O=c1ccoc2c(O)c(O)ccc12 [Ig, 7,8-dihydroxychromen-4-one] |  |  | 19.8 µg/mL |  | 100% |  | 19.9 µg/mL | 100% | Melanin ([1]; 0.32 μM): 20.7 µg/mL; activity at 0.32 µM ([1]; Homo sapiens, Melanocyte, 240 h, 0.32 μM, percent of the negative untreated control): 104% |
| O=c1cc(CO)occ1O [Kojic acid, kojic acid, reference compound] |  |  |  |  |  |  |  |  | Melanin ([1]; 560 μM): 5.55 µg/mL; activity at 560 µM ([1]; Homo sapiens, Melanocyte, 240 h, 560 μM, percent of the negative untreated control): 55% |
